The results in this text go back to patent publication US8148387B2, “AKT and P70 S6 kinase inhibitors” (Eli Lilly and Company, priority 2008, dated 2012).

Like-named read-outs stand apart in the source and are kept apart here.

For orientation: inhibition means the share of the control response that was lost under treatment. As usually defined, the IC50 is the midpoint of a concentration-inhibition curve.

Experiment [1] deals with Phosphorylation of GSK3β(S9). Put plainly: p70 S6K/AKT In Vivo Target Inhibition, U87MG xenograft, pGSK3β. Set-up: species or system athymic nude mice. The settings on record: Mus musculus, U-87 MG, IV Dose 12.5 mpk, U87MG tumors, read-out: p(S9)GSK 3β - % inhibition. How it is done: (§1) U87MG human glioblastoma cells (5×106) are subcutaneously implanted into the flank of athymic nude mice in 0.2 mL of matrigel. Two weeks post-implantation, mice are dosed orally or parenterally according to a time course, single dose/single time point, or dose response protocol for the determination of TMED50 (threshold minimum effective dose). Tumors are flash frozen at harvest and blood is collected for the determination of parent compound plasma exposure and the calculation of TMEC50 (threshold minimum effective concentration) in the case of dose response studies. Tumors or tissues are pulverized in liquid N2 and lysed in 400 μL of XY Lysis Buffer (10 μg/mL Leupeptin, 10 μg/mL Trypsin-Chymotrypsin Inhibitor, 10 μg/mL Tosyl phenyl-alanyl chloromethyl ketone, 10 μg/mL Aprotinin, 60 mM Beta-Glycerol Phosphate, 1% Triton X100, 25 mM Tris pH 7.5, 2.5 mM Pyrophosphate, 150 mM NaCl, 2 mM p-tosyl-L-arginine methyl ester, 15 mM para-nitrophenyl phosphate, 5 mM Benzamidine, 1 mM Na Vanadate, 10 mM NaF, 50 μg/mL phenyl-methane sulfonyl fluoride, 1 mM 1,4-Dithiothreitol (DTT), 15 mM EDTA pH 8.0, 5 mM EGTA pH 8.0, 1 μM Microcystin, 1 μM Okadaic Acid, and 1 Roche Complete protease inhibitor mini-tablet per 10 mL) using Lysing Matrix D tubes (MP Biomedicals, Solon, Ohio, cat#6913-500) and a BIO101 Thermo Savant Fast Prep FP12. Lysates are aliquoted and either assayed immediately or stored at −80° C. for later testing. In Vivo Target Inhibition of p70 S6K and AKT is measured utilizing Meso Scale Discovery (Gaithersburg, Md.) ELISA technology to assess effects on phosphorylation of the serine 240/244 site of the downstream effector S6RP. Phosphorylation of p70 S6K(T389), AKT(5473) and GSK3β(S9) is also assessed using this technology in a multiplex format. In summary, 20 μg of lysate is added to carbon electrode containing 96-well plates pre-spotted with the appropriate capture antibodies. The protein of interest is probed using a ruthenium labeled detection antibody. Upon the passage of current over the electrode in the presence of read buffer containing the co-reactant TPA, electro-chemiluminescence results in the generation of light which is quantified and recorded using the MSD Sector 6000 instrument. For each study, percent inhibitions are calculated relative to the vehicle control group and ANOVA analysis is performed using the JMP software package for the determination of statistical significance.

Another experiment addresses T1, p70 S6 Kinase (Homo sapiens, UniProt P23443, T412E).
T1 construct: amino acids 1-421, T412E; His tag (N)
The experiment can be described thus: p70 S6 Kinase In Vitro Enzyme Assay (Transcreener Kinase ADP-FP). It counts as biochemical. The settings on record: 25 micromolar ATP; read-out: IC50 against p70 S6 Kinase. How it is done: Compound IC50 values against p70 S6 Kinase target are determined using the p70 S6 Transcreener™ Kinase ADP-FP Assay. This assay assesses the activity of p70 S6 kinase in the presence of compound inhibitors by measuring the concentration of adenosine diphosphate (ADP) formed in a kinase reaction. The kinase reactions (25 μL reaction volumes) are performed in 96-well half-area black polystyrene plates. Adenosine triphosphate (ATP) is added to start the reactions. Final reaction conditions are 10 millimolar N-2-hydroxyethyl-piperazine-N′-2-ethanesulfonic acid (HEPES) pH 7.5, 0.005% TRITON™ X-100, 0.082 millimolar ethyleneglycol tetraacetic acid (EGTA), 1 millimolar dithiothreitol, 10 millimolar magnesium chloride, 4 micromolar substrate peptide, 25 micromolar ATP, active p70 S6 Kinase (Human recombinant, amino acids 1-421, T412E, N-terminal histidine-tagged), 4% DMSO and serial dilutions of compound (diluted 1:3 from 20,000 to 1 nanomolar). […] Quenched reactions are incubated for 4-16 hours, and then read in a Tecan Ultra Evolution plate reader in Fluorescence Polarization mode using polarizing filters of Ex612nm and Em633nm wavelength. […] The IC50 value for each compound is derived using percent inhibition data which is calculated using the micromolar ADP reaction data relative to on-plate controls (active enzyme versus 100 millimolar inhibited enzyme controls). […]

Experiment [2] concerns phosphorylation of the serine 240/244 site of S6RP. The experiment can be described thus: p70 S6K/AKT In Vivo Target Inhibition, U87MG xenograft, pS6. The conditions noted are these: Mus musculus, U-87 MG, IV Dose 12.5 mpk, U87MG tumors, read-out: p(S240) S6 - % inhibition. Set-up: species or system athymic nude mice. How it is done: as §1
Experiment [3] concerns Phosphorylation of p70 S6K(T389). Put plainly: p70 S6K/AKT In Vivo Target Inhibition, U87MG xenograft, p-p70 S6K. Also noted: species or system athymic nude mice. The conditions noted are these: Mus musculus, U-87 MG, IV Dose 12.5 mpk, U87MG tumors. How it is done:
as §1

T1 sequence (P23443 1-421 T412E): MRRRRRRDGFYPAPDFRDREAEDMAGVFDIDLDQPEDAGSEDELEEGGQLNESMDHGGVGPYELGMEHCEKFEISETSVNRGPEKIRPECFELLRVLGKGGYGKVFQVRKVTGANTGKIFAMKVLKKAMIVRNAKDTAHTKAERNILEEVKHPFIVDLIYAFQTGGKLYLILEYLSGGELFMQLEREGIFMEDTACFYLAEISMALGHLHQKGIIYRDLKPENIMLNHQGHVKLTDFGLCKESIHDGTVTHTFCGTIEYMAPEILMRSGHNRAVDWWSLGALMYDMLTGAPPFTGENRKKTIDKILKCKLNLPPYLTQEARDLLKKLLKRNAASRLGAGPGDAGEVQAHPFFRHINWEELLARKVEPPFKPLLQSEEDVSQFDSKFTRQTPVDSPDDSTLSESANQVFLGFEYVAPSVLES

As for `CN(C)CCn1cc(-c2ccc(F)c(C(F)(F)F)c2)nc1C1CCN(c2ncnc3c2C(C)(C)C(=O)N3)CC1` [Example 31], the inhibition at 12.5 mg/kg is 48.4% in experiment [1] (1 hr post IV dose); 12.6% in experiment [1] (2 hr post IV dose); 20.5% in experiment [1] (4 hr post IV dose); 51.7% in experiment [1] (6 hr post IV dose); 20.1% in experiment [1] (8 hr post IV dose); 6% in experiment [1] (24 hr post IV dose). In addition, the inhibition at 12.5 mg/kg in experiment [2] (1 hr post IV dose) was 79.2%; in experiment [2] (2 hr post IV dose), 87.6%; in experiment [2] (4 hr post IV dose) it was 94.9%; in experiment [2] (6 hr post IV dose) it was 91.7%; in experiment [2] (8 hr post IV dose), 96.4%; in experiment [2] (24 hr post IV dose), 45%. Further, the inhibition at 12.5 mg/kg in experiment [3] (1 hr post IV dose) came to 77.3%; in experiment [3] (2 hr post IV dose) it was 76.1%; in experiment [3] (4 hr post IV dose), 76.1%; in experiment [3] (6 hr post IV dose) it was 76.1%; in experiment [3] (8 hr post IV dose) it was 70.7%; in experiment [3] (24 hr post IV dose) it was 61.6%. Moreover, the IC50 on p70 S6 Kinase is 7 nM.
